Measurements as given in the supplement of paper PMC10307832.

What was measured:
Assay in all cases: relative viability (nuclei count vs DMSO), 5 days (fraction); higher = more cells survive
NCI-H3122 = tested on: NCI-H3122
Summary of the method: (§1)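 Lung cancer cell lines in 1536-well plates got either a single drug or a fixed anchor-drug dose together with five library-drug doses (not always all listed) in √10 steps, by pin tool, on the day after seeding. Nuclei were counted after 5 days, and relative viability is the treated-to-vehicle ratio of nuclei counts. Values are medians of duplicate plates.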

SK-MES-1 = tested on: SK-MES-1
Summary of the method: as §1

NCI-H2405 = tested on: NCI-H2405
Summary of the method: as §1

NCI-H1651 = tested on: NCI-H1651
Summary of the method: as §1

SW 1573 = tested on: SW 1573
Summary of the method: as §1

NCI-H2126 = tested on: NCI-H2126
Summary of the method: as §1

LK-2 = tested on: LK-2
Summary of the method: as §1

NCI-H838 = tested on: NCI-H838
Summary of the method: as §1

NCI-H1792 = tested on: NCI-H1792
Summary of the method: as §1

NCI-H661 = tested on: NCI-H661
Summary of the method: as §1

ABC-1 = tested on: ABC-1
Summary of the method: as §1

NCI-H2023 = tested on: NCI-H2023
Summary of the method: as §1

HARA = tested on: HARA
Summary of the method: as §1

A-427 = tested on: A-427
Summary of the method: as §1

LOU-NH91 = tested on: LOU-NH91
Summary of the method: as §1

NCI-H460 = tested on: NCI-H460
Summary of the method: as §1

ChaGo-K-1 = tested on: ChaGo-K-1
Summary of the method: as §1

NCI-H1734 = tested on: NCI-H1734
Summary of the method: as §1

COR-L23 = tested on: COR-L23
Summary of the method: as §1

LCLC-97TM1 = tested on: LCLC-97TM1
Summary of the method: as §1

NCI-H23 = tested on: NCI-H23
Summary of the method: as §1

LU99A = tested on: LU99A
Summary of the method: as §1

NCI-H1975 = tested on: NCI-H1975
Summary of the method: as §1

Nc1cccc2c1CN(C1CCC(=O)NC1=O)C2=O (stereo not drawn) [Lenalidomide] + C[C@@H](Oc1cc(-c2cnn(C3CCNCC3)c2)cnc1N)c1c(Cl)ccc(F)c1Cl [Crizotinib] (partner 1 µM)
relative viability (NCI-H3122; first compound 0.253 µM): 0.261
relative viability (NCI-H3122; first compound 0.8 µM): 0.286
relative viability (NCI-H3122; first compound 2.53 µM): 0.261
relative viability (NCI-H3122; first compound 8 µM): 0.258
relative viability (SK-MES-1; first compound 0.253 µM): 1
relative viability (SK-MES-1; first compound 0.8 µM): 1.04
relative viability (SK-MES-1; first compound 2.53 µM): 0.972
relative viability (SK-MES-1; first compound 8 µM): 0.974
relative viability (NCI-H2405; first compound 0.253 µM): 0.819
relative viability (NCI-H2405; first compound 0.8 µM): 0.858
relative viability (NCI-H2405; first compound 2.53 µM): 0.897
relative viability (NCI-H2405; first compound 8 µM): 0.791
relative viability (NCI-H1651; first compound 0.253 µM): 0.875
relative viability (NCI-H1651; first compound 0.8 µM): 0.884
relative viability (NCI-H1651; first compound 2.53 µM): 0.865
relative viability (NCI-H1651; first compound 8 µM): 0.861
relative viability (SW 1573; first compound 0.253 µM): 0.801
relative viability (SW 1573; first compound 0.8 µM): 0.844
relative viability (SW 1573; first compound 2.53 µM): 0.766
relative viability (SW 1573; first compound 8 µM): 0.772
relative viability (NCI-H2126; first compound 0.253 µM): 1.02
relative viability (NCI-H2126; first compound 0.8 µM): 1.02
relative viability (NCI-H2126; first compound 2.53 µM): 1.08
relative viability (NCI-H2126; first compound 8 µM): 0.993
relative viability (LK-2; first compound 0.253 µM): 0.229
relative viability (LK-2; first compound 2.53 µM): 0.216
relative viability (LK-2; first compound 8 µM): 0.256
relative viability (NCI-H838; first compound 0.253 µM): 0.847
relative viability (NCI-H838; first compound 0.8 µM): 0.954
relative viability (NCI-H838; first compound 2.53 µM): 0.914
relative viability (NCI-H838; first compound 8 µM): 0.913
relative viability (NCI-H1792; first compound 0.253 µM): 1.04
relative viability (NCI-H1792; first compound 0.8 µM): 0.795
relative viability (NCI-H1792; first compound 2.53 µM): 1.12
relative viability (NCI-H1792; first compound 8 µM): 0.96
relative viability (NCI-H661; first compound 0.253 µM): 0.972
relative viability (NCI-H661; first compound 0.8 µM): 0.898
relative viability (NCI-H661; first compound 2.53 µM): 0.905
relative viability (NCI-H661; first compound 8 µM): 0.973
relative viability (ABC-1; first compound 0.253 µM): 1.06
relative viability (ABC-1; first compound 0.8 µM): 1.25
relative viability (ABC-1; first compound 2.53 µM): 1.37
relative viability (ABC-1; first compound 8 µM): 1.43
relative viability (NCI-H2023; first compound 0.253 µM): 0.661
relative viability (NCI-H2023; first compound 0.8 µM): 0.785
relative viability (NCI-H2023; first compound 2.53 µM): 0.675
relative viability (NCI-H2023; first compound 8 µM): 0.596
relative viability (HARA; first compound 0.253 µM): 1.02
relative viability (HARA; first compound 0.8 µM): 1.05
relative viability (HARA; first compound 2.53 µM): 1.2
relative viability (HARA; first compound 8 µM): 1.13
relative viability (A-427; first compound 0.253 µM): 0.833
relative viability (A-427; first compound 2.53 µM): 0.891
relative viability (A-427; first compound 8 µM): 0.903
relative viability (LOU-NH91; first compound 0.253 µM): 0.73
relative viability (LOU-NH91; first compound 0.8 µM): 0.732
relative viability (LOU-NH91; first compound 2.53 µM): 0.714
relative viability (LOU-NH91; first compound 8 µM): 0.704
relative viability (NCI-H460; first compound 0.253 µM): 0.807
relative viability (NCI-H460; first compound 0.8 µM): 1.06
relative viability (NCI-H460; first compound 2.53 µM): 1.01
relative viability (NCI-H460; first compound 8 µM): 0.929
relative viability (ChaGo-K-1; first compound 0.253 µM): 1.1
relative viability (ChaGo-K-1; first compound 2.53 µM): 1.31
relative viability (ChaGo-K-1; first compound 8 µM): 1.28
relative viability (NCI-H1734; first compound 0.253 µM): 0.622
relative viability (NCI-H1734; first compound 0.8 µM): 0.654
relative viability (NCI-H1734; first compound 2.53 µM): 0.618
relative viability (NCI-H1734; first compound 8 µM): 0.597
relative viability (COR-L23; first compound 0.253 µM): 0.656
relative viability (COR-L23; first compound 0.8 µM): 0.634
relative viability (COR-L23; first compound 2.53 µM): 0.718
relative viability (COR-L23; first compound 8 µM): 0.82
relative viability (LCLC-97TM1; first compound 0.8 µM): 0.511
relative viability (LCLC-97TM1; first compound 2.53 µM): 0.463
relative viability (LCLC-97TM1; first compound 8 µM): 0.305
relative viability (NCI-H23; first compound 0.253 µM): 0.521
relative viability (NCI-H23; first compound 0.8 µM): 0.439
relative viability (NCI-H23; first compound 2.53 µM): 0.605
relative viability (NCI-H23; first compound 8 µM): 0.62
relative viability (LU99A; first compound 0.253 µM): 0.525
relative viability (LU99A; first compound 0.8 µM): 0.517
relative viability (LU99A; first compound 2.53 µM): 0.559
relative viability (LU99A; first compound 8 µM): 0.54
relative viability (NCI-H1975; first compound 0.253 µM): 1.03
relative viability (NCI-H1975; first compound 0.8 µM): 0.984
relative viability (NCI-H1975; first compound 2.53 µM): 1.15
relative viability (NCI-H1975; first compound 8 µM): 1.01
